According to ChEMBL document CHEMBL1139072, “A molecular modeling analysis of novel non-hydroxamate inhibitors of TACE” (Bioorg Med Chem Lett, 2007):

How the values were obtained:
[1] = biological target: Disintegrin and metalloproteinase domain-containing protein 17 (Sus scrofa, UniProt O77636); experiment: Inhibition of porcine TACE
[2] = Dissociation constant, pKa in water; format: physicochemical

Chain of Disintegrin and metalloproteinase domain-containing protein 17 (O77636 whole entry, the tested form may be a part): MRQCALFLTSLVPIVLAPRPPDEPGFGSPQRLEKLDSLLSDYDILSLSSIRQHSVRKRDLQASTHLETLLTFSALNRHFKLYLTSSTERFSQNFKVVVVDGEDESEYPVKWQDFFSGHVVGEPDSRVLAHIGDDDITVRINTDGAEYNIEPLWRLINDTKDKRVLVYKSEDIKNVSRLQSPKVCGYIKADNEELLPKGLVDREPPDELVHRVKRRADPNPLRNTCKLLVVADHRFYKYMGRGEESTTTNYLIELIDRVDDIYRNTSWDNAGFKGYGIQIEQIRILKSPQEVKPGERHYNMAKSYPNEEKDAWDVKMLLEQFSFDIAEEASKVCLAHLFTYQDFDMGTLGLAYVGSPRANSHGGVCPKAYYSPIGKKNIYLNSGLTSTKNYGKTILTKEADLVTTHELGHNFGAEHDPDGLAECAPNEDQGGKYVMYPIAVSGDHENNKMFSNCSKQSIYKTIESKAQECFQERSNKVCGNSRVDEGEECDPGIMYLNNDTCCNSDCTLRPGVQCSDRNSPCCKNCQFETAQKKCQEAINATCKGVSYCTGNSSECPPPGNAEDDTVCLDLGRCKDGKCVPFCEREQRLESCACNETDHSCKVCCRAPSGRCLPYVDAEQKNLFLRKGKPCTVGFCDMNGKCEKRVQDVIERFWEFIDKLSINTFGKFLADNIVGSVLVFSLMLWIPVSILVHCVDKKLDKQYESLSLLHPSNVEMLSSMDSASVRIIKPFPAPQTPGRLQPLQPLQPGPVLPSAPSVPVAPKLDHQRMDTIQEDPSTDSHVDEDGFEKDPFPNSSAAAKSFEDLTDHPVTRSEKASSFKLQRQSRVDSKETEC

SMILES | IC50 [1] [nM] | pKa [2]
Cc1cc(COc2ccc(C3(N4CCN(C)CC4)C(=O)NC(=O)NC3=O)cc2)c2ccccc2n1 | 91 | 7.2
Cc1cc(COc2ccc([C@@]3(C)CCN([C@@H](C)C(=O)NO)C3=O)cc2)c2ccccc2n1 | < 1 | 9
Cc1cc(COc2ccc(C(=O)N[C@H]3CNC[C@@]34NC(=O)NC4=O)cc2)c2ccccc2n1 | 25 | –
Cc1cc(COc2ccc(NC(=O)C[C@H]3CCC[C@]34NC(=O)NC4=O)cc2)c2ccccc2n1 [listing 1 of 2 here] | 17 | –
Cc1cc(COc2ccc(NC(=O)C[C@@H]3CCC[C@]34NC(=O)NC4=O)cc2)c2ccccc2n1 | 7400 | –
Cc1cc(COc2ccc(NC(=O)C[C@@H]3CCC[C@@]34NC(=O)NC4=O)cc2)c2ccccc2n1 | 11 | –
Cc1cc(COc2ccc(NC(=O)[C@H]3CCC[C@]34NC(=O)NC4=O)cc2)c2ccccc2n1 | 230 | –
Cc1cc(COc2ccc(NC(=O)[C@@H]3CCC[C@]34NC(=O)NC4=O)cc2)c2ccccc2n1 | 64 | –
Cc1cc(COc2ccc(C(=O)NCC3NC(=O)NC3=O)cc2)c2ccccc2n1 (centres undefined) | 98 | –
Cc1cc(COc2ccc(C(=O)N[C@@H]3CNC[C@]34NC(=O)NC4=O)cc2)c2ccccc2n1 | 900 | –
Cc1cc(COc2ccc(NC(=O)C[C@H]3CCC[C@]34NC(=O)NC4=O)cc2)c2ccccc2n1 [listing 2 of 2 here] | 900 | 8.9
